Test system: MV-4-11 cells
Assay: Gene expression microarray analysis (Affymetrix PrimeView) and GSEA
Type: cell-based, human
Design: RFU PODN (11730768_x_at) / Fold change /veh PODN (11730768_x_at) / RFU LINC00158 (11744669_a_at) / Fold change /veh LINC00158 (11744669_a_at) / RFU DUSP10 (11751237_a_at) / Fold change /veh DUSP10 (11751237_a_at) / RFU ID3 (11757404_x_at) / Fold change /veh ID3 (11757404_x_at) / RFU PLEKHG5 (11737974_s_at) / Fold change /veh PLEKHG5 (11737974_s_at) / RFU LRRC4B (11730491_at) / Fold change /veh LRRC4B (11730491_at) / RFU GIMAP4 (11747438_a_at) / Fold change /veh GIMAP4 (11747438_a_at) / RFU KRT8 (11758183_x_at) / Fold change /veh KRT8 (11758183_x_at) / RFU CNN1 (11734310_a_at) / Fold change /veh CNN1 (11734310_a_at) / RFU VPS37D (11726825_at) / Fold change /veh VPS37D (11726825_at) / RFU C10orf10 (11716522_x_at) / Fold change /veh C10orf10 (11716522_x_at) / RFU KIR2DL2 /// KIR2DL4 /// KIR2DL5A /// KIR2DL5B /// KIR2DS1 /// KIR2DS2 /// KIR2DS3 /// KIR2DS4 /// KIR3DL3 /// KIR3DL3 /// KIR3DS1 (11738374_at) / Fold change /veh KIR2DL2 /// KIR2DL4 /// KIR2DL5A /// KIR2DL5B /// KIR2DS1 /// KIR2DS2 /// KIR2DS3 /// KIR2DS4 /// KIR3DL3 /// KIR3DL3 /// KIR3DS1 (11738374_at) / RFU C1QL1 (11718748_at) / Fold change /veh C1QL1 (11718748_at) / RFU TMPRSS4 (11747572_a_at) / Fold change /veh TMPRSS4 (11747572_a_at) / RFU HAMP (11756126_x_at) / Fold change /veh HAMP (11756126_x_at) / RFU RNFT2 (11725882_a_at) / Fold change /veh RNFT2 (11725882_a_at) / RFU NR4A2 (11747474_a_at) / Fold change /veh NR4A2 (11747474_a_at) / RFU ABCC12 (11746883_a_at) / Fold change /veh ABCC12 (11746883_a_at) / RFU TMEM136 (11760407_x_at) / Fold change /veh TMEM136 (11760407_x_at) / RFU CLDN22 /// WWC2 (11732394_at) / Fold change /veh CLDN22 /// WWC2 (11732394_at) / RFU HLA-DPB1 (11760878_x_at) / Fold change /veh HLA-DPB1 (11760878_x_at) / RFU SPINT1 (11716480_a_at) / Fold change /veh SPINT1 (11716480_a_at) / RFU GAP43 (11754022_s_at) / Fold change /veh GAP43 (11754022_s_at) / RFU A4GNT (11735810_at) / Fold change /veh A4GNT (11735810_at) / RFU PRB3 (11715151_x_at) / Fold change /veh PRB3 (11715151_x_at) / RFU TUBB4B (11761932_at) / Fold change /veh TUBB4B (11761932_at) / RFU CAPN14 (11732068_a_at) / Fold change /veh CAPN14 (11732068_a_at) / RFU TMCC2 (11721928_a_at) / Fold change /veh TMCC2 (11721928_a_at) / RFU IRGQ (11745062_a_at) / Fold change /veh IRGQ (11745062_a_at) / RFU FAM174B (11720279_a_at) / Fold change /veh FAM174B (11720279_a_at) / RFU TMPRSS4 (11748680_a_at) / Fold change /veh TMPRSS4 (11748680_a_at) / RFU FAM212B (11763350_a_at) / Fold change /veh FAM212B (11763350_a_at) / RFU PLEKHG5 (11743358_a_at) / Fold change /veh PLEKHG5 (11743358_a_at) / RFU ZSCAN30 (11745921_a_at) / Fold change /veh ZSCAN30 (11745921_a_at) / RFU CMKLR1 (11741424_a_at) / Fold change /veh CMKLR1 (11741424_a_at) / RFU LOC101060620 /// MAPK8IP1 (11723275_at) / Fold change /veh LOC101060620 /// MAPK8IP1 (11723275_at) / RFU SPTSSB (11747773_x_at) / Fold change /veh SPTSSB (11747773_x_at) / RFU PRSS12 (11739890_at) / Fold change /veh PRSS12 (11739890_at) / RFU BIN1 (11741810_x_at) / Fold change /veh BIN1 (11741810_x_at) / RFU WNT11 (11732464_a_at) / Fold change /veh WNT11 (11732464_a_at) / RFU C10orf10 (11716521_a_at) / Fold change /veh C10orf10 (11716521_a_at) / RFU C5orf56 (11738089_at) / Fold change /veh C5orf56 (11738089_at) / RFU CYB561 (11721691_x_at) / Fold change /veh CYB561 (11721691_x_at) / RFU ANKRD19P (11752326_a_at) / Fold change /veh ANKRD19P (11752326_a_at) / RFU OR2T12 /// OR2T33 /// OR2T8 (11738714_s_at) / Fold change /veh OR2T12 /// OR2T33 /// OR2T8 (11738714_s_at) / RFU VCAN (11748164_a_at) / Fold change /veh VCAN (11748164_a_at) / RFU JSRP1 (11732532_at) / Fold change /veh JSRP1 (11732532_at) / RFU KRTAP10-11 (11738290_x_at) / Fold change /veh KRTAP10-11 (11738290_x_at) / RFU MYO3A (11730013_a_at) / Fold change /veh MYO3A (11730013_a_at) / RFU EBF3 (11725865_a_at) / Fold change /veh EBF3 (11725865_a_at) / RFU CAMK2N1 (11719241_x_at) / Fold change /veh CAMK2N1 (11719241_x_at) / RFU C5orf56 (11738088_a_at) / Fold change /veh C5orf56 (11738088_a_at) / RFU OLFML3 (11715873_a_at) / Fold change /veh OLFML3 (11715873_a_at) / RFU LOC100653217 /// NTM (11731650_a_at) / Fold change /veh LOC100653217 /// NTM (11731650_a_at) / RFU MAPK11 (11762145_a_at) / Fold change /veh MAPK11 (11762145_a_at) / RFU FIZ1 (11724087_x_at) / Fold change /veh FIZ1 (11724087_x_at) / RFU OASL (11726364_x_at) / Fold change /veh OASL (11726364_x_at) / RFU SOX15 (11748057_x_at) / Fold change /veh SOX15 (11748057_x_at) / RFU CD79A (11719716_a_at) / Fold change /veh CD79A (11719716_a_at) / RFU HIST1H1D (11736915_at) / Fold change /veh HIST1H1D (11736915_at) / RFU CASKIN2 (11723855_a_at) / Fold change /veh CASKIN2 (11723855_a_at) / RFU LOC730098 (11760151_x_at) / Fold change /veh LOC730098 (11760151_x_at) / RFU OR4N2 (11742367_at) / Fold change /veh OR4N2 (11742367_at) / RFU PRRT2 (11749266_a_at) / Fold change /veh PRRT2 (11749266_a_at) / RFU SNX32 (11753110_a_at) / Fold change /veh SNX32 (11753110_a_at) / RFU CDHR5 (11726645_a_at) / Fold change /veh CDHR5 (11726645_a_at) / RFU RCAN1 (11760418_a_at) / Fold change /veh RCAN1 (11760418_a_at) / RFU FAM167A (11723789_a_at) / Fold change /veh FAM167A (11723789_a_at) / RFU FAM26E (11764081_at) / Fold change /veh FAM26E (11764081_at) / RFU ISYNA1 (11749810_s_at) / Fold change /veh ISYNA1 (11749810_s_at) / RFU ACY1 (11761880_at) / Fold change /veh ACY1 (11761880_at) / RFU 11764098_at / Fold change /veh 11764098_at / RFU SAMD14 (11745864_x_at) / Fold change /veh SAMD14 (11745864_x_at) / RFU NPB (11741838_a_at) / Fold change /veh NPB (11741838_a_at) / RFU TMPRSS6 (11731388_a_at) / Fold change /veh TMPRSS6 (11731388_a_at) / RFU KRTAP10-2 (11738614_at) / Fold change /veh KRTAP10-2 (11738614_at) / RFU ARHGAP8 /// PRR5-ARHGAP8 (11727945_x_at) / Fold change /veh ARHGAP8 /// PRR5-ARHGAP8 (11727945_x_at) / RFU KRTAP5-7 /// NADSYN1 (11734609_at) / Fold change /veh KRTAP5-7 /// NADSYN1 (11734609_at) / RFU RASL12 (11751679_a_at) / Fold change /veh RASL12 (11751679_a_at) / RFU CDKN2B (11736163_a_at) / Fold change /veh CDKN2B (11736163_a_at) / RFU PRF1 (11729649_at) / Fold change /veh PRF1 (11729649_at) / RFU, ZNF638 /// ZNF638-IT1 / Fold change vs veh, ZNF638 /// ZNF638-IT1 / RFU, PANK3 / Fold change vs veh, PANK3 / RFU, SH3YL1 / Fold change vs veh, SH3YL1 / RFU, ZEB2 / Fold change vs veh, ZEB2 / RFU, NRIP1 / Fold change vs veh, NRIP1 / RFU, PTTG1IP / Fold change vs veh, PTTG1IP / RFU, CAPN2 / Fold change vs veh, CAPN2 / RFU, MED14 / Fold change vs veh, MED14 / RFU, SNORA58 / Fold change vs veh, SNORA58 / RFU, C1orf63 / Fold change vs veh, C1orf63 / RFU, LRRFIP1 / Fold change vs veh, LRRFIP1 / RFU, NDUFAF7 / Fold change vs veh, NDUFAF7 / RFU, SLC12A2 / Fold change vs veh, SLC12A2 / RFU, IBTK / Fold change vs veh, IBTK / RFU, ESF1 / Fold change vs veh, ESF1 / Fold change vs veh, TMEM50B / RFU, TAOK1 / Fold change vs veh, TAOK1 / RFU, ACBD3 / Fold change vs veh, ACBD3 / RFU, TMA16 / Fold change vs veh, TMA16 / RFU, RWDD3 / Fold change vs veh, RWDD3 / RFU, BCAT1 / Fold change vs veh, BCAT1 / RFU, EDEM3 / Fold change vs veh, EDEM3 / RFU, TMEM33 / Fold change vs veh, TMEM33 / RFU, WDR75 / Fold change vs veh, WDR75 / RFU, AHCTF1 / Fold change vs veh, AHCTF1 / RFU, TFRC / Fold change vs veh, TFRC / RFU, ZDHHC17 / Fold change vs veh, ZDHHC17 / RFU, NOM1 / Fold change vs veh, NOM1 / RFU, ARL8B / Fold change vs veh, ARL8B / RFU, ZBTB11 / Fold change vs veh, ZBTB11 / RFU, TAMM41 / Fold change vs veh, TAMM41 / RFU, KIAA1704 /// LOC100996395 / Fold change vs veh, KIAA1704 /// LOC100996395 / RFU, ING1 / Fold change vs veh, ING1 / RFU, TRMT61B / Fold change vs veh, TRMT61B / RFU, FUBP3 / Fold change vs veh, FUBP3 / RFU, TP53 / Fold change vs veh, TP53 / RFU, TNKS2 / Fold change vs veh, TNKS2 / RFU, ZFP14 / Fold change vs veh, ZFP14 / RFU, ACTR2 / Fold change vs veh, ACTR2 / RFU, PPP3R1 / Fold change vs veh, PPP3R1 / RFU, PIK3R1 / Fold change vs veh, PIK3R1 / RFU, HNRNPA1 / Fold change vs veh, HNRNPA1 / RFU, RNF170 / Fold change vs veh, RNF170 / RFU, ZNF28 / Fold change vs veh, ZNF28 / RFU, RNGTT / Fold change vs veh, RNGTT / RFU, OGT / Fold change vs veh, OGT / RFU, BRD1 / Fold change vs veh, BRD1 / RFU, MARS / Fold change vs veh, MARS / RFU, ZNF655 / Fold change vs veh, ZNF655 / RFU, FAHD1 / Fold change vs veh, FAHD1 / RFU, BDP1 / Fold change vs veh, BDP1 / RFU, LRRCC1 / Fold change vs veh, LRRCC1 / RFU, ARID1A / Fold change vs veh, ARID1A / RFU, ZNF146 / Fold change vs veh, ZNF146 / RFU, ZNF330 / Fold change vs veh, ZNF330 / RFU, GPN3 / Fold change vs veh, GPN3 / RFU, C9orf123 / Fold change vs veh, C9orf123 / RFU, N4BP2L2 / Fold change vs veh, N4BP2L2 / RFU, ARFIP1 / Fold change vs veh, ARFIP1 / RFU, FAM179B / Fold change vs veh, FAM179B / RFU, BCL10 / Fold change vs veh, BCL10 / RFU, UHRF1BP1L / Fold change vs veh, UHRF1BP1L / RFU, BET1 / Fold change vs veh, BET1 / RFU, CNOT2 / Fold change vs veh, CNOT2 / RFU, ZNF268 / Fold change vs veh, ZNF268 / Fold change vs veh, ZNF507 / RFU, DGCR2 / Fold change vs veh, DGCR2 / RFU, WDSUB1 / Fold change vs veh, WDSUB1 / Fold change vs veh, HSP90B1 /// MIR3652 / RFU, ADSS / Fold change vs veh, ADSS / RFU, GK / Fold change vs veh, GK / RFU, ZNF148 / Fold change vs veh, ZNF148 / RFU, TAF9 / Fold change vs veh, TAF9 / RFU, SLC1A5 / Fold change vs veh, SLC1A5 / RFU, SLMO2 / Fold change vs veh, SLMO2 / RFU, ABCC4 / Fold change vs veh, ABCC4 / RFU, LOC101060439 /// RAP1B / Fold change vs veh, LOC101060439 /// RAP1B / RFU, RFX7 / Fold change vs veh, RFX7 / RFU, GTPBP10 / Fold change vs veh, GTPBP10 / RFU, CNEP1R1 / Fold change vs veh, CNEP1R1 / RFU, BIVM-ERCC5 /// ERCC5 / Fold change vs veh, BIVM-ERCC5 /// ERCC5 / RFU, ILF3 / Fold change vs veh, ILF3 / RFU 11762660_at / Fold change /veh 11762660_at / RFU VCAN (11757783_s_at) / Fold change /veh VCAN (11757783_s_at) / RFU DDX43 (11728927_at) / Fold change /veh DDX43 (11728927_at) / RFU KRT8 (11758188_x_at) / Fold change /veh KRT8 (11758188_x_at) / RFU NKD1 (11759106_at) / Fold change /veh NKD1 (11759106_at) / RFU SRD5A1 (11742802_a_at) / Fold change /veh SRD5A1 (11742802_a_at) / RFU TPSAB1 /// TPSB2 (11721975_s_at) / Fold change /veh TPSAB1 /// TPSB2 (11721975_s_at) / RFU GSTM3 (11746129_a_at) / Fold change /veh GSTM3 (11746129_a_at) / RFU IL23R (11737362_x_at) / Fold change /veh IL23R (11737362_x_at) / RFU TMEM51 (11727254_a_at) / Fold change /veh TMEM51 (11727254_a_at) / RFU PIWIL2 (11732686_x_at) / Fold change /veh PIWIL2 (11732686_x_at) / RFU ORM1 (11744905_x_at) / Fold change /veh ORM1 (11744905_x_at) / RFU CCDC152 (11743942_at) / Fold change /veh CCDC152 (11743942_at) / RFU ECM1 (11717891_a_at) / Fold change /veh ECM1 (11717891_a_at) / RFU IL23R (11748794_a_at) / Fold change /veh IL23R (11748794_a_at) / RFU TNFAIP8L3 (11732012_x_at) / Fold change /veh TNFAIP8L3 (11732012_x_at) / RFU MBOAT4 (11741988_at) / Fold change /veh MBOAT4 (11741988_at) / RFU 11764193_at / Fold change /veh 11764193_at / RFU TMEM53 (11763286_at) / Fold change /veh TMEM53 (11763286_at) / RFU MAGEB2 (11727129_at) / Fold change /veh MAGEB2 (11727129_at) / RFU TMEM200A (11744735_a_at) / Fold change /veh TMEM200A (11744735_a_at) / RFU CCDC152 (11751479_a_at) / Fold change /veh CCDC152 (11751479_a_at) / RFU FAM211A (11726209_a_at) / Fold change /veh FAM211A (11726209_a_at) / RFU RGS16 (11746705_a_at) / Fold change /veh RGS16 (11746705_a_at) / RFU VCAN (11755009_s_at) / Fold change /veh VCAN (11755009_s_at) / RFU RHOB (11743442_s_at) / Fold change /veh RHOB (11743442_s_at) / RFU RGS16 (11720943_a_at) / Fold change /veh RGS16 (11720943_a_at) / RFU RGS16 (11720944_at) / Fold change /veh RGS16 (11720944_at) / RFU, VPS4B / Fold change vs veh, VPS4B / RFU, CREB1 / Fold change vs veh, CREB1 / RFU, DNAJC13 / Fold change vs veh, DNAJC13 / RFU, GNAQ / Fold change vs veh, GNAQ / RFU, CDK5R1 / Fold change vs veh, CDK5R1 / RFU, ZRANB3 / Fold change vs veh, ZRANB3 / RFU, CUL4A / Fold change vs veh, CUL4A / RFU, CCNY / Fold change vs veh, CCNY / RFU, UFL1 / Fold change vs veh, UFL1 / RFU, COG3 / Fold change vs veh, COG3 / RFU, DIAPH2 / Fold change vs veh, DIAPH2 / RFU, SKA2 / Fold change vs veh, SKA2 / RFU, AFF3 / Fold change vs veh, AFF3 / RFU, LMF1 / Fold change vs veh, LMF1 / RFU, IPO11 / Fold change vs veh, IPO11 / RFU, DFFB / Fold change vs veh, DFFB / RFU, FOXP1 / Fold change vs veh, FOXP1 / RFU, CARD8 / Fold change vs veh, CARD8 / RFU, STRN3 / Fold change vs veh, STRN3 / RFU, ADK / Fold change vs veh, ADK / RFU, RASSF2 / Fold change vs veh, RASSF2 / RFU, WIPF1 / Fold change vs veh, WIPF1 / RFU, LARP1B / Fold change vs veh, LARP1B / RFU, RASA1 / Fold change vs veh, RASA1 / RFU, RB1 / Fold change vs veh, RB1 / RFU, PPFIA1 / Fold change vs veh, PPFIA1 / RFU, MAT2A / Fold change vs veh, MAT2A / RFU, CCT5 / Fold change vs veh, CCT5 / RFU, WDR92 / Fold change vs veh, WDR92 / RFU, CUX1 / Fold change vs veh, CUX1 / RFU, TTC7A / Fold change vs veh, TTC7A / RFU, TMEM135 / Fold change vs veh, TMEM135 / RFU, DEPTOR / Fold change vs veh, DEPTOR / RFU, CPM / Fold change vs veh, CPM / RFU, DNAJB6 / Fold change vs veh, DNAJB6 / RFU, CACNA2D3 / Fold change vs veh, CACNA2D3 / RFU, DTX4 / Fold change vs veh, DTX4 / RFU, TFCP2 / Fold change vs veh, TFCP2 / RFU, GMCL1 /// GMCL1P1 / Fold change vs veh, GMCL1 /// GMCL1P1 / RFU, AEBP2 / Fold change vs veh, AEBP2 / RFU, SNHG1 /// SNORD22 /// SNORD25 /// SNORD26 /// SNORD27 /// SNORD28 /// SNORD29 /// SNORD31 / Fold change vs veh, SNHG1 /// SNORD22 /// SNORD25 /// SNORD26 /// SNORD27 /// SNORD28 /// SNORD29 /// SNORD31 / Fold change (Aza/veh), C12orf56 (ProbeSet 11735607_a_at) / Fold change (ACY-1035/veh), C12orf56 (ProbeSet 11735607_a_at) / Fold change (Aza/veh), FGFR1OP (ProbeSet 11751329_s_at) / Fold change (ACY-1035/veh), FGFR1OP (ProbeSet 11751329_s_at) / Fold change (Aza/veh), VPS36 (ProbeSet 11739960_a_at) / Fold change (ACY-1035/veh), VPS36 (ProbeSet 11739960_a_at) / RFU SYPL1 (11715823_x_at) / Fold change /veh SYPL1 (11715823_x_at) / RFU IGFBP7 (11715501_s_at) / Fold change /veh IGFBP7 (11715501_s_at) / RFU REEP3 (11722064_at) / Fold change /veh REEP3 (11722064_at) / RFU IGLL1 (11728026_x_at) / Fold change /veh IGLL1 (11728026_x_at): dose or concentration left out as unconfirmed
Conditions: MV-4-11 cells, 48 hours

With `Nc1ncn([C@@H]2O[C@H](CO)[C@@H](O)[C@H]2O)c(=O)n1` [azacitidine] the “Fold change /veh JSRP1 (11732532_at)” value was 1.00.

Reference: paper PMC5218480 (PLoS ONE, 2017)
